These results are taken from PMC10708028, “Target Screen of Anti-Hyperuricemia Compounds from Cortex Fraxini In Vivo Based on ABCG2 and Bioaffinity Ultrafiltration Mass Spectrometry” (Molecules, 2023).

For orientation: Kd means the free concentration of one partner at which half of the binding sites on the other are occupied at equilibrium, for simple one-to-one binding. A higher Kd goes with a looser complex.

This assay deals with T1, ABCG2 (Homo sapiens, UniProt Q9UNQ0).
T1 construct: Recombinant ABCG2
T1 sequence (Q9UNQ0 1-655): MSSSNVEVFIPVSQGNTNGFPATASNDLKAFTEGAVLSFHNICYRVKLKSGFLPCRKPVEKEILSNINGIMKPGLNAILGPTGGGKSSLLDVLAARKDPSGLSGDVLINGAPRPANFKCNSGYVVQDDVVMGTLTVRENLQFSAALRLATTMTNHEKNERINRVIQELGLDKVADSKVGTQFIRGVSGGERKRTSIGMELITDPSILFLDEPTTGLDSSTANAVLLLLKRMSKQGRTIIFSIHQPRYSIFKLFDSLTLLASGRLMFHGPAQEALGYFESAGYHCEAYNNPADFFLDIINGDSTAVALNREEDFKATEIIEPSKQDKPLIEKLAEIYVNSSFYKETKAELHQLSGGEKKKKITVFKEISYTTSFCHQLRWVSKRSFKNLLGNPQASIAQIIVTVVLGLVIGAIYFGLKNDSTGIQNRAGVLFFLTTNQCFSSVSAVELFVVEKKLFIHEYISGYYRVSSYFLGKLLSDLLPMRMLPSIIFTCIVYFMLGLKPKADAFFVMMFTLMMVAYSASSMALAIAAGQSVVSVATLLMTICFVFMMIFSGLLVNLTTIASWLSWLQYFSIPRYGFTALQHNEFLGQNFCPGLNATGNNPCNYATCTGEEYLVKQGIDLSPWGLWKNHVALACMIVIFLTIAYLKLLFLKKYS
The assay is classed as binding.

In the case of `COc1cc2ccc(=O)oc2c(O[C@@H]2O[C@H](CO)[C@@H](O)[C@H](O)[C@H]2O)c1O` [fraxin], the Kd amounted to 141 µM.
